Test results as given in paper PMC6062979 (BMC Complementary and Alternative Medicine, 2018).
Converted amounts (≈) assume the structure as drawn. “Also recorded” adds a separate entry of the source.

What was measured:
T. cruzi Tryp (TDC) = assay: Anti-parasitic activity on T. cruzi trypomastigotes derived from cells (Trypan Blue differential count); conditions: for IC50: Trypanosoma cruzi, read-out: Tryp IC50 SD, trypomastigotes, 24 h; for IC50 / Tryp IC50 SD: 24 h; for Tryp SI (CC50/IC50): Vero CC50 / trypomastigote IC50; for Tryp IC50 SD: trypomastigotes
Description: (§1) Vero lineage derived from African Green Monkey Kidney (Vero, ATCC CCL-81) was used for selectivity index determination and for Tryp and Amas production. These cells were grown on DMEM (Life Technology, CA, USA) media, pH: 7.4; supplemented with 10% of inactivated Fetal Bovine Serum (FBSi), 1000 U/mL of penicillin, and 100 μg/mL of streptomycin; and incubated at 37 °C with 90% humidity and a 5% CO2 atmosphere. Epi of T. cruzi I (TcI) SYLVIO-X10 strain, were donated by Dr. Marcos López-Casillas, from Fundación Cardiovascular de Colombia and grown in LIT medium (Merck) supplemented with 10% FBSi, and incubated at 28 °C. The Trypomastigotes Derived from Cells (TDC) were obtained by infection of a confluent monolayer of Vero cells with 12 day-old stationary growth phase Epi and incubated under the same conditions described above for Vero cells.
(§2) T. cruzi Epi (5 × 10^5 Epi/mL) and TDC (5 × 10^5 cells/mL) in the exponential growth phase were plated in a 96-well standard microplate in LIT medium (at 28 °C) and in D-MEM medium (at 37 °C in a 5% CO2 atmosphere), respectively. Both cultures were supplemented with 10% FBSi. For the trypanocidal assays, the EOs or their terpenes were added at varying concentrations (3.7 to 100 μg/mL) and incubated at the same culture conditions for 72 (Epi) or 24 h (Tryp). The growth inhibition was estimated by light microscopy through a differential count using the Trypan Blue (Gibco) dye exclusion technique. […] For Amas assays, a monolayer of Vero cells (3 × 10^5 cel/mL) was infected with TDC in a 1:3 cell:parasite ratio and incubated for 24 h until Amas development occurred. Then, these intracellular forms were exposed for 120 h to EOs or terpenes in a treatment applied in two doses (at 0 and 48 h), under the same conditions described above. Growth inhibition analysis was assessed in Giemsa-stained films using light microscopy to determine the infected and uninfected cell percentage in a total of 300 cells. Cells without treatment and those treated with BNZ were used as negative and positive controls, respectively.

T. cruzi Epi [1] = assay: Flow cytometry Annexin V / SYTOX Green cell death analysis on epimastigotes; format: cell-based, Trypanosoma cruzi; conditions: 48 h at 2xIC50, flow cytometry
Description: For cell death characterization, an Annexin V/Dead with SYTOX® Green (Molecular Probes, Invitrogen) kit was used following the procedure specified in the manufacturer’s instructions. The phosphatidylserine externalization was determined by employing a recombinant Annexin V conjugated to the Orange Fluorescent phycobiliprotein R-PE, and to the necrotic cells using SYTOX™ Green nucleic acid stain. Briefly, 1 × 10^6 Epi per mL were treated with 2xIC50 for 48 h, washed, and suspended in 1X Annexin-Binding Buffer.

T. cruzi Amas = assay: Anti-parasitic activity on intracellular T. cruzi amastigotes in Vero cells (Giemsa count); format: cell-based, Trypanosoma cruzi; conditions: for IC50: Trypanosoma cruzi, Vero, read-out: Amas IC50 ± SD; for IC50 / Amas IC50 ± SD: intracellular amastigotes in Vero, 120 h, two doses (0 and 48 h); for Amas SI (CC50/IC50): Vero CC50 / amastigote IC50
Description: as §1, §2

T. cruzi Epi [2] = assay: Anti-parasitic activity on T. cruzi epimastigotes (Trypan Blue differential count); conditions: for IC50: Trypanosoma cruzi, read-out: Epi IC50 ± SD, epimastigotes, 72 h; for IC50 / Epi IC50 ± SD: 72 h; for Epi SI (CC50/IC50): Vero CC50 / epimastigote IC50; for Epi IC50 ± SD: epimastigotes
Description: as §1, §2

T. cruzi Epi [3] = assay: Morphological analysis by optical and fluorescent microscopy (DIC, DAPI, MitoTracker); format: cell-based, Trypanosoma cruzi; conditions: 2xIC50, 48 h
Description: (§3) The death phenotype was analyzed by optical and fluorescent microscopy using phase contrast (fluorescence microscopy, Nikon Eclipse Ni). […] Determination of an oligonucleosomal-DNA ladder in treated parasites was also evaluated through DNA gel electrophoresis. Evaluation of the mitochondrial potential membrane in living parasites was performed with MitoTracker Red CMXRos (579 nm/599 nm […] wavelength). As a positive and negative apoptosis control, a 15 day-old Epi culture and an untreated fresh parasite culture were used, respectively.

[4] = Cytotoxic activity on Vero cells (WST-1); conditions: African green monkey, pH 7.4
Description: as §1
(§4) Vero cells (3 × 10^5 cel/mL) were incubated at 37 °C in a 5% CO2 atmosphere and at 95% humidity for 24 h to ensure the formation of a confluent monolayer. After this time, the cells were treated with the EOs or their terpenes in four different concentrations (11.1, 33.3, 100, and 300 μg/mL). Thereafter, the lineages were incubated for 70 h at 37 °C in a 5% CO2 atmosphere and re-incubated 2 more hours with WST-1 (Roche, Mannheim, Germany), after which Optical Density (OD) measurements were analyzed by spectrophotometry. The cytotoxicity percentage was calculated using [(OD450nm Control – OD450nm treatment) / […])] × 100. The results were expressed as Cytotoxic Concentration 50 (CC50).

T. cruzi Epi [5] = assay: DNA fragmentation by TUNEL assay on epimastigotes; format: cell-based, Trypanosoma cruzi; conditions: for DNA fragmentation (positive TUNEL) percentage: Epi, 48 h, 2xIC50; for TUNEL assay result: treated parasites
Description: as §3

Vero cells = assay: Cytotoxic activity on Vero cells (WST-1); conditions: Vero cells, 72 h, WST-1
Description: as §1, §4

[6] = Vero cells (ATCC CCL-81), kidney

Row | Compound | IC50 (T. cruzi Tryp (TDC)) [µg/mL] | Tryp SI (CC50/IC50) (T. cruzi Tryp (TDC)) | Tryp IC50 SD (T. cruzi Tryp (TDC)) [µg/mL] | percentage of cell death (T. cruzi Epi [1]) [%] | IC50 (T. cruzi Amas) [µg/mL] | Amas SI (CC50/IC50) (T. cruzi Amas) | IC50 (T. cruzi Epi [2]) [µg/mL] | Epi SI (CC50/IC50) (T. cruzi Epi [2]) | Epi IC50 ± SD (T. cruzi Epi [2]) [µg/mL] | morphological changes of treated parasites (T. cruzi Epi [3]) | CC50 at 72 h [4, 6] [µg/mL] | Amas IC50 ± SD (T. cruzi Amas) [µg/mL] | DNA fragmentation (positive TUNEL) percentage (T. cruzi Epi [5]) [%] | TUNEL assay result (T. cruzi Epi [5]) | Vero CC50 ± SD (Vero cells) [µg/mL] | also measured
1 | CC(C)=CCCC(C)=CC=O (mixture of isomers) [Citral, citral] | 20.8 | 4.3 | 21 ± 1 | 78.4 | 49 ± 2.3 | 1.8 | 37.2 | 2.4 | 37 ± 0.7 | typical characteristics of apoptosis | 90 ± 3.9 |  |  |  |  | 
2 | O=C(Cn1ccnc1[N+](=O)[O-])NCc1ccccc1 [BNZ, Benznidazole, reference compound] | 1.2 ± 0.1 (≈ 4.61 µM) | 116.3 |  |  | 6 ± 0.9 (≈ 23.1 µM) | 22.4 | 17 ± 0.9 (≈ 65.3 µM) | 8.2 |  | cellular edema and loss of cellular membrane integrity, but with conserved mitochondrial energetic potential | 139 ± 2.3 (≈ 534 µM) | 6.2 ± 0.9 |  |  |  | 
3 | C=C(C)[C@H]1CC=C(C)C(=O)C1 [Carvone, S (+) carvone] | 124 ± 8 (≈ 825 µM) | 1.9 |  |  | > 100 |  | 177 ± 7.9 (≈ 1180 µM) | 1.4 |  |  |  |  |  |  |  | CC50 at 72 h [4]: 240 ± 4.1 µg/mL (≈ 1600 µM)
4 | C=C(C)[C@H]1CC=C(C)CC1 [Limonene, D (+) limonene] |  |  | 9 ± 0.8 | 89.2 |  |  |  |  |  | typical characteristics of apoptosis |  | 29 ± 0.7 | 94 | positive | 297 ± 2.4 | Amas IC50 ± SD (T. cruzi Amas; listed as limonene): 28.7 µg/mL
5 | (−) caryophyllene oxide [CarOx] |  | 5.9 | 22 ± 0.3 | 95.7 |  | 2.7 |  | 4.3 | 30 ± 1.7 | flagellum to be lost; also recorded: typical characteristics of apoptosis |  | 47 ± 1.0 | 99 | positive | 128 ± 4.2 | cell death percentage (CDP) on Tryp (T. cruzi Tryp (TDC); at 50 μg/mL): 98 ± 0.5%; Tryp IC50 SD (T. cruzi Tryp (TDC); listed as caryophyllene oxide): 21.6 µg/mL; Amas IC50 ± SD (T. cruzi Amas; listed as caryophyllene oxide): 47.4 µg/mL; cell death percentage (CDP) on Epi (T. cruzi Epi [2]; at 50 μg/mL): 78 ± 2.3%; Epi IC50 ± SD (T. cruzi Epi [2]; listed as caryophyllene oxide): 29.8 µg/mL
